According to ChEMBL document CHEMBL1201862, “PubChem BioAssay data set” (2004):
Activity calls are given as the source filed them. Rule as the data show it, for most assays here: actives have a measured EC50 and inactives only a lower limit.

How the values were obtained:
[1] = Luminescence Cell-Based Dose Response to Identify Activators of 5'UTR Stem-Loop Driven Prion Protein mRNA Translation in H4-C Neuroglioblastoma Cells. [Related pubchem assays: 1829 (Project Summary), 1814 (Primary HTS)]; format: functional
[2] = Luminescence Cell-Based Dose Confirmation HTS to Identify Activators of 5'UTR Stem-Loop Driven Alpha-Synuclein mRNA Translation in H4 Neuroglioblastoma Cells. [Related pubchem assays: 1829 (Project Summary), 1814 (Primary HTS)]; format: functional
[3] = Luminescence Cell-Based Dose Response HTS to Identify Activators of Luciferase Translation or Activity in H4 […] Cells. [Related pubchem assays: 1829 (Project Summary), 1814 (Primary HTS)]; format: functional
[4] = tested on: H4; assay: Luminescence Cell-Based Dose Response HTS to Identify Activators of 5'UTR Stem-Loop Driven Prion Protein mRNA Translation in H4 Neuroglioblastoma Cells. [Related pubchem assays: 1829 (Project Summary), 1814 (Primary HTS)]; format: functional; conditions: Homo sapiens
[5] = Luminescence Cell-Based Dose Response to Identify Activators of Luciferase Translation or Activity in H4-C Neuroglioblastoma Cells. [Related pubchem assays: 1829 (Project Summary), 1814 (Primary HTS)]; format: functional
[6] = Luminescence Cell-Based Dose Confirmation to Identify Activators of 5'UTR Stem-Loop Driven Alpha-Synuclein mRNA Translation in H4 Neuroglioblastoma Cells. [Related pubchem assays: 1829 (Project Summary), 1814 (Primary HTS)]; format: functional
[7] = tested on: Vero; assay: viability of Vero cells under compound – cytotoxicity control for flavivirus capping enzyme inhibitors (AID 588742); format: functional; conditions: Chlorocebus sabaeus
[8] = target: Genome polyprotein (dengue virus type 2, UniProt P29990); assay: flavivirus cap methylation enzyme inhibition – biochemical, confirmation dose response, primary screen (AID 588689); format: functional
[9] = target: Hexokinase-1 (Homo sapiens, UniProt P19367); assay: SAR analysis of small molecule inhibitors of hexokinase domain containing I (HKDC1) in the hexokinase 1 selectivity assay. [Related pubchem assays (depositor defined):AID493160, AID493190]; format: functional
[10] = target: T1, Hexokinase HKDC1 (Homo sapiens, UniProt Q2TB90); assay: SAR analysis of small molecule inhibitors of hexokinase domain containing I (HKDC1). [Related pubchem assays (depositor defined):AID493160, AID493190]; format: functional
T1 sequence (Q2TB90 whole entry): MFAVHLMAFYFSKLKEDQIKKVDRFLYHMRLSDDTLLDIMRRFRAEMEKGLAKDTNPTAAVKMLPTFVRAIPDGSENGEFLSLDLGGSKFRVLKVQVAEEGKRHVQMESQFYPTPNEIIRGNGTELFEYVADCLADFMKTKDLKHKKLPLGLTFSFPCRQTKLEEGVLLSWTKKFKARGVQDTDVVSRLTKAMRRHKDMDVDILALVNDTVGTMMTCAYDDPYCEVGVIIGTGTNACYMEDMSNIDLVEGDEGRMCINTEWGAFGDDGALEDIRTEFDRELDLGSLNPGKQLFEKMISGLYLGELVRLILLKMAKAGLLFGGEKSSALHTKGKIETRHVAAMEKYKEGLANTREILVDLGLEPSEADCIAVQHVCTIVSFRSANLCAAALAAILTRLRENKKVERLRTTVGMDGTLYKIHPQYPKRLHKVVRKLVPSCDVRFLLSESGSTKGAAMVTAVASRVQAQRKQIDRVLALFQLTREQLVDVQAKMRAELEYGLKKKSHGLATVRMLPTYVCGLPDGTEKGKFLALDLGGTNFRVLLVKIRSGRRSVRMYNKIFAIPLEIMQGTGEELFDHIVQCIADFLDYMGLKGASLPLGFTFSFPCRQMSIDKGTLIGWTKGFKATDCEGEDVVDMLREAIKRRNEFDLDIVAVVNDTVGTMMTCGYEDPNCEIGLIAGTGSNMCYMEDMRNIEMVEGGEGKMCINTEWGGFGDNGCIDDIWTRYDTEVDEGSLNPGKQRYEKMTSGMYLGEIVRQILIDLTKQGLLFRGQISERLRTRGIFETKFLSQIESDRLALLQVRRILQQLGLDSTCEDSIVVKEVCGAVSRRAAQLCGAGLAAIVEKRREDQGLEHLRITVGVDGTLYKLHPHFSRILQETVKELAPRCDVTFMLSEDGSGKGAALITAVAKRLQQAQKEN

[11] = NIH-3T3 fibroblast cytotoxicity, dose response, cytotoxicity control, cell-based, fluorescence, Alamar Blue, secondary assay (AID 2327); format: functional;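 also: NIH-3T3 mouse fibroblasts cultured with fluconazole at 8 µg/mL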
[12] = tested on: Streptococcus sp. 'group A'; assay: Streptococcus pyogenes SK(-)GAS viability under kanamycin – luminescence, BacTiterGlo, confirmation, counter-screen for streptokinase expression inhibitor project, dose response (AID 1900); format: functional, organism-based
[13] = fluconazole-exposed Candida albicans growth modulators – fluorescence, retest, confirmation (AID 2467); format: functional, cell-based
[14] = target: Serine/threonine-protein phosphatase (Candida dubliniensis (strain CD36 / CBS 7987 / NCPF 3949 / NRRLY-17841) (Yeast), UniProt B9W6M3); assay: blockers of CaCl2-induced CDRE-lacZ signaling – S. cerevisiae, luminescence, secondary, dose response (AID 2388); format: functional, cell-based;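 also: yeast reporter cells carrying a calcineurin-responsive lacZ construct stimulated with calcium chloride; luminescent beta-galactosidase reporter signal in whole cells rather than isolated phosphatase activity; potency for inhibition where a drop in reporter signal means calcineurin blockade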
[15] = target: T2, Calpain-2 catalytic subunit (Sus scrofa, UniProt P43367); assay: m-calpain protease blockers, concentration series – biochemical, fluorogenic peptide substrate, dose response (AID 1420); format: functional
T2 sequence (P43367 whole entry): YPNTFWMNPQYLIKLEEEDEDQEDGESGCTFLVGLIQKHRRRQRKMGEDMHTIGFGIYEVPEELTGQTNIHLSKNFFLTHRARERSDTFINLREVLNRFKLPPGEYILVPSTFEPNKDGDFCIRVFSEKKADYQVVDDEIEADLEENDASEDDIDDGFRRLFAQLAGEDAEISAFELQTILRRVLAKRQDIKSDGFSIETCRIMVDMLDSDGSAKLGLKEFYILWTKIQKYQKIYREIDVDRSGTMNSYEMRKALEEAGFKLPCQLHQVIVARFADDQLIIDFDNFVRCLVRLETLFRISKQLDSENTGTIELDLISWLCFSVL

[16] = tested on: Streptococcus; assay: GAS UMAA2166 growth inhibition – luminescence, BacTiterGlo, counter-screen for streptokinase expression inhibitor project, dose response (AID 1915); format: functional, organism-based;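 also: potency for reduction of bacterial viability or growth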
[17] = target: Heat shock protein HSP 90-alpha (Homo sapiens, UniProt P07900); format: functional, organism-based
[18] = target: ATP-dependent molecular chaperone HSP82 (Candida albicans (strain WO-1) (Yeast), UniProt C4YTQ8); assay: steroid-induced GRE reporter decrease in yeast – S. cerevisiae, luminescence, Hsp90 inhibitor project, dose response (AID 2400); format: functional, cell-based;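 also: beta-galactosidase luminescence from glucocorticoid response element reporter as proxy for Hsp90 function; inhibitor potency where signal loss means Hsp90 inhibition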
[19] = target: T3, Acyl-homoserine lactone acylase PvdQ (Pseudomonas aeruginosa (strain LESB58), UniProt Q9I194); assay: PvdQ acylase enzyme activity blockers – biochemical, fluorescence, plate reader and imaging, cherry-picks, dose response (AID 493231)
T3 sequence (Q9I194 whole entry): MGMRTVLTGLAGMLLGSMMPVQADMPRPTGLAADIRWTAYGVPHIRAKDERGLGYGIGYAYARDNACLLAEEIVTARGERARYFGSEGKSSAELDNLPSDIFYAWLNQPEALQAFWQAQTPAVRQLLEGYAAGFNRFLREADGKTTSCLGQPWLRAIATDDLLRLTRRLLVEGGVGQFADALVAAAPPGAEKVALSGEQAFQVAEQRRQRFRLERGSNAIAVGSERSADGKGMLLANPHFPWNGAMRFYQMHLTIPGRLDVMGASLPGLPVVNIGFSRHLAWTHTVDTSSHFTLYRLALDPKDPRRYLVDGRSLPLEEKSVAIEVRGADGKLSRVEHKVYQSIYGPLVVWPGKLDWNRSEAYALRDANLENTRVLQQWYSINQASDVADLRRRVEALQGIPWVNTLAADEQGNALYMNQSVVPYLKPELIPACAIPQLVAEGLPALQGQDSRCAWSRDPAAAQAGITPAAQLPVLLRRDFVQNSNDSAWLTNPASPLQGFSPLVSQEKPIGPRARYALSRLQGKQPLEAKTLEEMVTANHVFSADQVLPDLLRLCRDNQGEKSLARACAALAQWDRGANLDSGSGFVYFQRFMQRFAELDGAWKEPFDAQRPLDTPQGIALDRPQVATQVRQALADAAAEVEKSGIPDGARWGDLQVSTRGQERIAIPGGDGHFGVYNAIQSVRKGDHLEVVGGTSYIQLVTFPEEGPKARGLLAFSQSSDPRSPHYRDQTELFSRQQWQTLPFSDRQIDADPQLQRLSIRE

[20] = tested on: HEK293; assay: cells; format: functional, cell-based; conditions: Homo sapiens
[21] = target: Nuclear receptor subfamily 0 group B member 1 (Homo sapiens, UniProt P51843); assay: Luminescence-based cell-based high throughput dose response assay for inhibitors of the orphan nuclear receptor subfamily 0, group B, member 1 (DAX1; NR0B1). [Related pubchem assays (depositor defined):AID504766, AID504790]; format: functional
[22] = target: T4, Rac GTPase-activating protein 1 (Homo sapiens, UniProt Q9H0H5); assay: blockers of MgcRacGAP-driven Rac1 GTP hydrolysis – biochemical, ADP Hunter fluorescence, primary and confirmatory, confirmation (AID 624330); format: functional
T4 sequence (Q9H0H5 whole entry): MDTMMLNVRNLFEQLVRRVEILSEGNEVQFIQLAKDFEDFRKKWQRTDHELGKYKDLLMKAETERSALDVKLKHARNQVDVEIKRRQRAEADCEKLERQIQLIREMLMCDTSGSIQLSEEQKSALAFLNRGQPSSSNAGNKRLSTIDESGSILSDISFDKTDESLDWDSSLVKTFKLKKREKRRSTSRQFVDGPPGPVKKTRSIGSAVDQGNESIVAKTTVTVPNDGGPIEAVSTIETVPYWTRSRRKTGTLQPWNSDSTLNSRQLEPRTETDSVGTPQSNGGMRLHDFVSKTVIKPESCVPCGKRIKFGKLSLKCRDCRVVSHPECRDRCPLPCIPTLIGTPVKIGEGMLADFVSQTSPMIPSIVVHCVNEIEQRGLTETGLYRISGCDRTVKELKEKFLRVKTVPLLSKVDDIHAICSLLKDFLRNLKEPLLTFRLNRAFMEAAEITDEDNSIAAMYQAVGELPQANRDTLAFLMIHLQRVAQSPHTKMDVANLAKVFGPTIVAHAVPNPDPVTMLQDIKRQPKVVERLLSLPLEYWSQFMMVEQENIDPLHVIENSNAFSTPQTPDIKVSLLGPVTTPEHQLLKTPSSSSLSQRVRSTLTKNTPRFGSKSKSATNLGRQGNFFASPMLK

Serine/threonine-protein phosphatase, sequence (B9W6M3 whole entry): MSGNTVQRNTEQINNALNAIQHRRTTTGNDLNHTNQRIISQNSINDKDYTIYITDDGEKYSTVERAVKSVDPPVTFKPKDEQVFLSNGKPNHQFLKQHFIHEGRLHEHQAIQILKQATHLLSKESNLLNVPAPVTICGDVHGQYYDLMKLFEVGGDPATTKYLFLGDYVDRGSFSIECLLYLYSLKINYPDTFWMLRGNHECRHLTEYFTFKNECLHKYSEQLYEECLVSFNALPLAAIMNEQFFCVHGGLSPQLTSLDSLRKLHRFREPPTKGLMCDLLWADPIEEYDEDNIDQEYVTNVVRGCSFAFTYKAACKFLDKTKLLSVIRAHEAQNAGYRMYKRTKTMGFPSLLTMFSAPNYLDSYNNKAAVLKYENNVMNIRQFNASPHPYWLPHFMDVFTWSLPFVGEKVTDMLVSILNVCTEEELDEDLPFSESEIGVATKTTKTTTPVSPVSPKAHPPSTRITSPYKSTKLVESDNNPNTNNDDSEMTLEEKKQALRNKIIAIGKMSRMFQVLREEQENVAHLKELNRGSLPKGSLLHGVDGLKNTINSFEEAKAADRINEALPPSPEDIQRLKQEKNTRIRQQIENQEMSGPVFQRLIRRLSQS
Hexokinase-1, sequence (P19367 whole entry, the tested form may be a part): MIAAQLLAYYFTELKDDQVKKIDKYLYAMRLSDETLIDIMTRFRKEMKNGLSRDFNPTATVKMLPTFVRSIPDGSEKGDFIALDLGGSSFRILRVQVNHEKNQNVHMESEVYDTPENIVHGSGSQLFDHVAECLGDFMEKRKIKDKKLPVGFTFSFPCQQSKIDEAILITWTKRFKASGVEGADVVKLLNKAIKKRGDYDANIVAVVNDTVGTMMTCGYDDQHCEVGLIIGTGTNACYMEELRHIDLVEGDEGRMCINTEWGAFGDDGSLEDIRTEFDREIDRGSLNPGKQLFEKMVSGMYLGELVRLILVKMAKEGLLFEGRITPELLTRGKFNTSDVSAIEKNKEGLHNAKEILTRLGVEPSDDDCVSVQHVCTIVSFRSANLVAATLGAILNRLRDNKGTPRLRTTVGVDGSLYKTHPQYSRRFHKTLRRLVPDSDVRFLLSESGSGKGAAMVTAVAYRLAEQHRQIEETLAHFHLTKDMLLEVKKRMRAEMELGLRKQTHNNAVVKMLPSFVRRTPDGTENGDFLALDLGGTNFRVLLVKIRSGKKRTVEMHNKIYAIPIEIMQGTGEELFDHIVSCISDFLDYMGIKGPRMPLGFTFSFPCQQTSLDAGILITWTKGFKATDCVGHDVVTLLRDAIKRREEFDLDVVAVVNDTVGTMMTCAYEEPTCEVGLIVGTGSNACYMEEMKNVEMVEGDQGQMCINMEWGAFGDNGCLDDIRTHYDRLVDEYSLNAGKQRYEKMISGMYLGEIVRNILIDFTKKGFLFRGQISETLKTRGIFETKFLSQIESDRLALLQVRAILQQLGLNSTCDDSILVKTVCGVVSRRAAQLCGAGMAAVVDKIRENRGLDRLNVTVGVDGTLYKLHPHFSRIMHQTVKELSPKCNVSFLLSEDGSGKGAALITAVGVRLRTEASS
ATP-dependent molecular chaperone HSP82, sequence (C4YTQ8 whole entry): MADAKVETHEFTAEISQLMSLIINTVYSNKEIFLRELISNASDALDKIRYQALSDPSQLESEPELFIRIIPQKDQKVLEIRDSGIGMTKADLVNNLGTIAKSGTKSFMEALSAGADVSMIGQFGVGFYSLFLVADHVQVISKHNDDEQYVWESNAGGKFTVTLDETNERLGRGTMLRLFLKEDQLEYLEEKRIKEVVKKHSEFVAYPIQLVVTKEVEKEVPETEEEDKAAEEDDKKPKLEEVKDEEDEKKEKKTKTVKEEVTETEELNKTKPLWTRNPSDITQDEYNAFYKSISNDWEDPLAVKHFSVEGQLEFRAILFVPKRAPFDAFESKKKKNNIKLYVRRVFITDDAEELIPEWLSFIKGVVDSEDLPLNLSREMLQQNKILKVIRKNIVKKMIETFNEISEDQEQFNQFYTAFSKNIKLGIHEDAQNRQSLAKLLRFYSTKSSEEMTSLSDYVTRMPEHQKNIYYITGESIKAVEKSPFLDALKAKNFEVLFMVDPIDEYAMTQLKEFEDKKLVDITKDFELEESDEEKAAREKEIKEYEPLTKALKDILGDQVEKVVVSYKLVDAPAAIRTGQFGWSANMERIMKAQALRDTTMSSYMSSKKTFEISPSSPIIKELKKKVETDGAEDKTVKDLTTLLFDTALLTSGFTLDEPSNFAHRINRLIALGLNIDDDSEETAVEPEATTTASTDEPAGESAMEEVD
Genome polyprotein, sequence (P29990 2492-3391 limits assumed): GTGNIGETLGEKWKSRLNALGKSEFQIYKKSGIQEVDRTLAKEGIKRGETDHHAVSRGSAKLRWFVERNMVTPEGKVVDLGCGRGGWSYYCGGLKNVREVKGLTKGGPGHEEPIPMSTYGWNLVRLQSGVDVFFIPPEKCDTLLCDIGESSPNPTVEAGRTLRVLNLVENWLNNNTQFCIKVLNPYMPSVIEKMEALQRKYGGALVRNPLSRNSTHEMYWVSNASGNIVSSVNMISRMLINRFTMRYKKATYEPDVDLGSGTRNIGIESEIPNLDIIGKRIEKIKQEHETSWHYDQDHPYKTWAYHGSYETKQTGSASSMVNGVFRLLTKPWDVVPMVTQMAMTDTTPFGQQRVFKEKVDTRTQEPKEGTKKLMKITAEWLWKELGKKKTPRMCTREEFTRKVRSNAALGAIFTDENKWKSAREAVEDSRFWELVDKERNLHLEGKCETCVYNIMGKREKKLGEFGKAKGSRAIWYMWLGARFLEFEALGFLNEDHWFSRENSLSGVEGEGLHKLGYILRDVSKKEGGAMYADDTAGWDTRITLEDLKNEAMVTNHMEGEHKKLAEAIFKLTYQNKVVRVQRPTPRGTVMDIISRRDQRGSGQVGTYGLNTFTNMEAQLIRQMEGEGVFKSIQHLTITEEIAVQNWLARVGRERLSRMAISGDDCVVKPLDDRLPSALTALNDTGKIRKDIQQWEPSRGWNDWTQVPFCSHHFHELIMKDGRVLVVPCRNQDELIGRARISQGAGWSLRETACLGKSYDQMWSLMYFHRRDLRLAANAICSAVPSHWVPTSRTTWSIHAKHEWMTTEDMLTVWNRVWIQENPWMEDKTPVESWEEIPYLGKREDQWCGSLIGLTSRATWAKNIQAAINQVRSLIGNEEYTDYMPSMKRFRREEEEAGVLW
Nuclear receptor subfamily 0 group B member 1, sequence (P51843 whole entry): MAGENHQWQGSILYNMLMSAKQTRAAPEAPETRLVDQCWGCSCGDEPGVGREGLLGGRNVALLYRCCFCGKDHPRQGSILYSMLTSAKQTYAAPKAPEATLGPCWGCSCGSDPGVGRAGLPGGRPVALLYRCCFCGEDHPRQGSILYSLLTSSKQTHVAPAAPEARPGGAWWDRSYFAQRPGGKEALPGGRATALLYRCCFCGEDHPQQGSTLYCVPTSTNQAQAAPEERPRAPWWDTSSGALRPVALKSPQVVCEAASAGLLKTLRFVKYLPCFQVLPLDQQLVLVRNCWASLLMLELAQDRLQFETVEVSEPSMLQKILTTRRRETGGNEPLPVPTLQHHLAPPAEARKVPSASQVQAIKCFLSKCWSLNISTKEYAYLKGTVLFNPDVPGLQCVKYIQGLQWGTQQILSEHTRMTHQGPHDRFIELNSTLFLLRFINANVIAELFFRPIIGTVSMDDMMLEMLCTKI

Cc1ccc(-c2nn(-c3ccccc3)cc2C=C2C(=O)CC(C)(C)CC2=O)cc1
EC50 [1]: > 12 µM (not active) | EC50 [2]: > 120 µM (not active) | EC50 [3]: 0.454 µM (active) | EC50 [4]: > 120 µM (not active) | EC50 [5]: 1.35 µM (active) | EC50 [6]: 0.555 µM (active) | CC50 [7]: 19.1 µM (active) | IC50 [8]: 44.8 µM (active)

Cc1cc2nnc(SCC(=O)Nc3ccccc3)n2c2ccccc12
IC50 [9]: > 80 µM (inactive) | IC50 [10]: > 80 µM (inactive)

O=C(Nc1nnc(SCc2ccccc2)s1)c1ccc2[nH]cnc2c1
IC50 [9]: > 80 µM (inactive) | IC50 [10]: > 80 µM (inactive)

O=[N+]([O-])c1cc(Cl)c(O)c2ncccc12
EC50 [11]: 15.5 µM (active) | EC50 [12]: 1.33 µM (active) | EC50 [13]: 0.055 µM (active) | EC50 [14]: > 180 µM (inactive) | IC50 [15]: > 50 µM (not active) | EC50 [16]: 5.77 µM (active) | AC50 [17]: 1.86 µM (active) | EC50 [18]: 1.48 µM (active)

Clc1ccc2c(c1)C(c1cccs1)=NNC(c1cccnc1)=N2
EC50 [11]: > 150 µM (inactive) | EC50 [13]: 0.101 µM (active) | EC50 [14]: > 180 µM (inactive) | EC50 [18]: > 150 µM (inactive)

CCOc1ccc(CNC2CCCc3ccccc32)cc1 (stereo not given)
AC50 [19]: 12.3 µM (active) | IC50 [20]: > 67.5 µM (inactive) | IC50 [21]: > 67.5 µM (inactive) | IC50 [22]: 202 µM (active)

CSc1ccc(-c2sc(Nc3cccc4ccccc34)n[n+]2-c2ccccc2)cc1
CC50 [7]: > 40 µM (active) | IC50 [8]: 44.5 µM (active)
